Test results published in patent US20150237857A1, “ANTIBACTERIAL INHIBITORS” (MCMASTER UNIVERSITY, priority 2012, published 2015).
In brackets after ≈: the same amount, converted by molar mass. Entries after “also recorded” stand apart in the source; their conditions may differ. Read-outs that look alike come from different tables or passages of the source.

Assays:
[1] = target: T1, recombinant PabA, PabB and PabC (Escherichia coli, UniProt P00903+P05041+P28305); experiment: biochemical; set-up: species or system E. coli
T1 construct: poly-histidine (pDEST17) (N); made in house; host or cells: E. coli BL21AI (pDEST17, arabinose induction)
T1 sequence (P00903 whole entry): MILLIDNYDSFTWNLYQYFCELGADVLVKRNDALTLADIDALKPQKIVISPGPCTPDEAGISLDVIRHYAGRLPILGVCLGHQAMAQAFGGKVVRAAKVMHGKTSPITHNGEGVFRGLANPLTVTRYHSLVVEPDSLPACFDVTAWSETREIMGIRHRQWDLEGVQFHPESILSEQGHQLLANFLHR
T1 sequence (P05041 whole entry): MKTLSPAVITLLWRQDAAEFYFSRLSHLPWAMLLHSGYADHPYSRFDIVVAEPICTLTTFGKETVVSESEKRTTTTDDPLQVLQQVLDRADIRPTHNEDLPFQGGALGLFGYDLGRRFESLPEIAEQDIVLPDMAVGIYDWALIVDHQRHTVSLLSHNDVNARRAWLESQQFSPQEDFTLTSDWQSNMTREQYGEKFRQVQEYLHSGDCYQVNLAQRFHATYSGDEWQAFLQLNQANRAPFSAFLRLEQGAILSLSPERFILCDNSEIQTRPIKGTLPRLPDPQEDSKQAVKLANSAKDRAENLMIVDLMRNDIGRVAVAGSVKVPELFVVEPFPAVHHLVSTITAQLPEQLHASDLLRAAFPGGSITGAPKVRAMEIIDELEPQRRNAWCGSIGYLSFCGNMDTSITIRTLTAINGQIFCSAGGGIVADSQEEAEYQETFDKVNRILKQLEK
T1 sequence (P28305 whole entry): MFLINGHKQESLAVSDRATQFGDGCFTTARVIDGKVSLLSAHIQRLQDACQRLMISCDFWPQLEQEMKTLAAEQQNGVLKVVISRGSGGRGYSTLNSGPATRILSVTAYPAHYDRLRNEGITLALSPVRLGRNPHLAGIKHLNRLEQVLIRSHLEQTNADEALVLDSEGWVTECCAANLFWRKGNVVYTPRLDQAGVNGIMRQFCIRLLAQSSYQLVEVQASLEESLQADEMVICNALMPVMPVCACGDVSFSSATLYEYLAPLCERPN
Protocol: Enzyme assays were conducted in triplicate at room temperature with 25 nM of PabA and PabB, 50 nM of PabC, 50 mM Tris-HCl (pH 7.5), 20 μM PLP, 1 mM L-glutamine, 40 μM chorismate and the indicated concentrations of MAC-173979. The inhibition assays were initiated by addition of a mixture of the three enzymes and quenched with an equal volume of freshly prepared 8M urea. The reaction progress curves were monitored every 10 minutes for 60 minutes and determined by a stopped HPLC-assay that allowed for the quantification of the conversion of chorismate to PABA. The two compounds were separated on a C18 reverse phase column (Nova-Pak C18, 4 μm, 3.9×150 mm, Waters) and eluted isocratically with 5% acetic acid in double distilled H2O. The analytes were visualized by UV absorbance at 275 nm and identified by comparing their retention times and UV absorption spectra to authentic standards. The progress curves were plotted to the rate equation of slow-binding inhibition: […]
using Sigma Plot 12.0 (SPSS, Inc., Chicago, Ill.), where v0 and vs are the initial and final steady-state reaction velocities, respectively, t is the time and kobs is the apparent first order rate constant for the interconversion between the initial and steady-state rates.
In order to directly test the biochemical activity of MAC-0173979 on PABA synthesis, an HPLC-based one-pot enzyme assay using recombinant PabA, PabB and PabC was set up and the formation of PABA was monitored by measuring its absorbance at 275 nm.
MAC173979 and an analog lacking the Michael acceptor (0-1000 μM) were each incubated with the PABA enzymes for 30 minutes prior to substrate addition. Reactions were quenched after 30 minutes with 8 M urea and analyzed by HPLC.

E. coli MG1655 [2] = experiment: Metabolic suppression profiling (ChemArray); assay type: cell-based
recombinant E. coli BioA = recombinant E. coli BioA (Escherichia coli, UniProt P12995); experiment: BioA inhibition through a feeding assay of a bioA auxotroph; assay type: biochemical
Chain of recombinant E. coli BioA (P12995 whole entry): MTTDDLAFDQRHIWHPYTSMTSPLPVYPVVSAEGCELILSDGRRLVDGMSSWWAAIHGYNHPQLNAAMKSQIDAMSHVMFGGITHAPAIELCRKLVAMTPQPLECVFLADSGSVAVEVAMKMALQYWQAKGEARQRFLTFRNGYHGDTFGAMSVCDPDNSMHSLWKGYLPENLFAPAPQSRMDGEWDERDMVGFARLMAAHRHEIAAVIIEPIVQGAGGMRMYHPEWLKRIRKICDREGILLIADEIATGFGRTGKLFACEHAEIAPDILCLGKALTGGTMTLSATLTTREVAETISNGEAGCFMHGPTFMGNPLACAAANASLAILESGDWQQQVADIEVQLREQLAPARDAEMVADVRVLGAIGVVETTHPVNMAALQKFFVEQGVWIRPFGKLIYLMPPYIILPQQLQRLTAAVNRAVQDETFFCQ
Protocol: To determine if the step catalyzed by BioA was the target of this inhibitor, the inhibitory activity of MAC-0013772 against recombinant E. coli BioA was assayed through a feeding assay of a bioA auxotroph.

BioA = BioA (Escherichia coli, UniProt P12995); experiment: UV-visible spectra of BioA titrated with inhibitor; assay type: binding, E. coli
Chain of BioA (P12995 whole entry): as above
Protocol: To further determine if the inhibition of BioA by MAC13772 is mediated through the interaction of the hydrazine moiety in the compound with PLP in the active site of the enzyme, the UV-visible spectra of BioA was assessed when titrated with the inhibitor.

Mycobacteria smegmatis = experiment: MIC against Mycobacteria smegmatis in absence and presence of biotin; assay type: cell-based
Acinetobacter baumannii = experiment: Activity against other organisms; assay type: cell-based
Protocol: (§1) The activity of MAC13772 was tested against a number of organisms in addition to Escherichia coli using methods similar to those described in Example 2.

Bacillus subtilis = experiment: Activity against other organisms; assay type: cell-based
Protocol: as §1

Klebsiella pneumonia = experiment: Activity against other organisms; assay type: cell-based
Protocol: as §1

[3] = tested on: Mycobacterium tuberculosis; experiment: Activity against other organisms; assay type: cell-based
Protocol: as §1

Salmonella typhimurium = experiment: Activity against other organisms; assay type: cell-based
Protocol: as §1

Staphylococcus aureus = experiment: Activity against other organisms; assay type: cell-based
Protocol: as §1

E. coli MG1655 [4] = experiment: Minimum inhibitory concentration (MIC) determination; details: for MIC: Escherichia coli; for effect of intermediates of biotin biosynthesis on inhibitory activity (in words): KAPA, DAPA, DTB, biotin in media; for Fold suppression: MIC with supplement / MIC without
Protocol: The MIC values were determined in liquid minimal media and minimal media supplemented with amino acids, vitamins and nucleobases.
A single colony of E. coli MG1655 was grown overnight in 5 ml of M9 minimal media. The saturated culture was diluted 1/50 in fresh minimal media and allowed to grow until the OD600 reached ˜0.4. […] After mixing of the bacterial culture with the compounds, the OD600 of the plates was read using Envision to account for background absorbance. The plates were then incubated in a 37° C. stationary incubator for 16 hours before measuring their OD600. After subtracting any background absorbance contributed by colored or precipitated compounds, the MIC was defined as the lowest concentration of antibiotic that inhibits visible growth.

[5] = tested on: E. coli wild-type, ΔltaEΔtdh and ΔltaEΔtdhΔkbl strains

## O=C(CC(Cl)Cl)c1cccc([N+](=O)[O-])c1 [analog lacking the Michael acceptor, 3,3-dichloro-1-(3-nitrophenyl)propan-1-one]
[1]
  IC50: 60 ± 7 µM

## NNC(=O)CSc1ccccc1[N+](=O)[O-] [MAC13772, 2-(2-nitrophenylthio) acetohydrazide]
E. coli MG1655 [2]; biotin in the growth media
  suppression of growth inhibitory activity by biotin: uniquely suppressed by biotin
Recombinant E. coli BioA
  IC50: ~0.25 µM
BioA; [inhibitor]/[BioA]
  stoichiometry of protein-ligand interaction (molar ratio plot): stoichiometric
BioA; shift from 420 nm (internal aldimine) to PLP-inhibitor adduct
  λmax of PLP-bound BioA after interaction with inhibitor: 393 nm
Mycobacteria smegmatis; absence of biotin, read-out: MIC −bio
  MIC: 4 µg/mL
Mycobacteria smegmatis; presence of 2 nM of biotin, read-out: MIC +bio
  MIC: > 256 µg/mL
Acinetobacter baumannii
  antibacterial activity: active
Bacillus subtilis
  antibacterial activity: active
Klebsiella pneumonia
  antibacterial activity: active
[3]
  antibacterial activity: active
Salmonella typhimurium
  antibacterial activity: active
Staphylococcus aureus
  antibacterial activity: active
E. coli MG1655 [4]; MG1655, read-out: MIC −bio, absence of biotin
  MIC: 8 µg/mL (≈ 35.2 µM)
E. coli MG1655 [4]; MG1655, supplement: AA + VIT + NUC
  MIC: > 256 µg/mL
E. coli MG1655 [4]; MG1655, supplement: BIOTIN
  MIC: > 256 µg/mL
E. coli MG1655 [4]; MG1655, supplement: DAPA
  MIC: > 256 µg/mL
E. coli MG1655 [4]; MG1655, supplement: DTB
  MIC: > 256 µg/mL
E. coli MG1655 [4]; MG1655, supplement: KAPA
  MIC: 8 µg/mL (≈ 35.2 µM)
E. coli MG1655 [4]; listed as MAC-0013372
  effect of intermediates of biotin biosynthesis on inhibitory activity (in words): KAPA had no effect
E. coli MG1655 [4]; listed as MAC-0013772
  effect of intermediates of biotin biosynthesis on inhibitory activity (in words): fully reversed by DAPA, DTB and biotin
E. coli MG1655 [4]; supplement: AA + VIT + NUC
  Fold suppression: 32
E. coli MG1655 [4]; supplement: BIOTIN
  Fold suppression: 32
E. coli MG1655 [4]; supplement: DAPA
  Fold suppression: 32
E. coli MG1655 [4]; supplement: DTB
  Fold suppression: 32
E. coli MG1655 [4]; supplement: KAPA
  Fold suppression: 1

## COc1ccc(C(=O)CCN(C)C)cc1 [MAC-0168425, 3-(dimethylamino)-1-(4-methoxyphenyl)propan-1-one]
E. coli MG1655 [2]; 4× MIC in M9 minimal media, L-serine
  suppression of growth inhibitory activity by L-serine: not suppressed
E. coli MG1655 [2]; 4× MIC in M9 minimal media, L-threonine
  suppression of growth inhibitory activity by L-threonine: partially suppressed
E. coli MG1655 [2]; 4× MIC in M9 minimal media, glycine
  suppression of growth inhibitory activity by glycine: strongly suppressed
[5]; wild-type strain, 40-640 μg/ml L-threonine
  fold shift in MIC: 4-8 fold
[5]; ΔltaEΔtdh double deletion strain, 320-640 μg/ml L-threonine
  fold shift in MIC: 2 fold
[5]; ΔltaEΔtdhΔkbl triple deletion mutant
  suppression of activity by L-threonine: completely lost

## O=C(C=C(Cl)Cl)c1cccc([N+](=O)[O-])c1 [MAC-0173979, 3,3-dichloro-1-(3-nitrophenyl)prop-2-en-1-one]
E. coli MG1655 [2]; 4× MIC in M9 minimal media, PABA in growth media
  suppression of growth inhibitory activity by p-aminobenzoic acid (PABA): suppressed; also recorded: fully reversed
E. coli MG1655 [2]; 4× MIC in M9 minimal media, methionine in growth media
  suppression of growth inhibitory activity by methionine: to a certain extent; also recorded: fully reversed
[1]
  IC50: 30 ± 2 µM
  Ki: 7.3 ± 1.3 µM
[1]; progress curves, kobs plot
  mechanism of inhibition of PABA synthesis: irreversible time-dependent inhibitor
E. coli MG1655 [4]; PABA added to the growth media
  fold suppression of MIC on addition of PABA: 16 fold
